Test results published in paper PMC10503797, “Allosteric modulator potentiates β2AR agonist–promoted bronchoprotection in asthma models” (The Journal of Clinical Investigation, 2023).
≈ marks a conversion by molar mass, not a printed value. Where “and” joins values, the source holds several entries; their conditions need not be identical. Equal entries are not always repeated.

Columns and labels:
murine WT β2AR = biological target: T1, murine WT β2AR (Mus musculus, UniProt P18762); experiment: GloSensor cAMP, constitutive activity of overexpressed murine WT β2AR; type: cell-based
T1 construct: expressed in transfected cells; HEK293 GloSensor cells (cAMP assay)
T1 sequence (P18762 whole entry): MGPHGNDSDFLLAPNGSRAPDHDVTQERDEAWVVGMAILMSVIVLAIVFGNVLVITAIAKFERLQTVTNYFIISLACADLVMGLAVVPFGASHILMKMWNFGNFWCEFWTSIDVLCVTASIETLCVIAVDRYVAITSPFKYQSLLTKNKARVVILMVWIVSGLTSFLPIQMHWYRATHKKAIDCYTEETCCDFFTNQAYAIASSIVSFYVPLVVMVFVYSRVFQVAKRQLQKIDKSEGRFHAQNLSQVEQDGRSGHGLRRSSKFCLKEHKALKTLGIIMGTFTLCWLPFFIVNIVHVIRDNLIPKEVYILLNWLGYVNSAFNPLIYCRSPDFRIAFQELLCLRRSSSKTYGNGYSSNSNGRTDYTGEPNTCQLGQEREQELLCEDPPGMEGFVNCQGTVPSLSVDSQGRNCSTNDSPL

murine V133F mutant β2AR = biological target: T2, murine V133F mutant β2AR (Mus musculus, UniProt P18762, V133F); experiment: GloSensor cAMP, constitutive activity of overexpressed murine V133F mutant β2AR; type: cell-based; conditions: Cmpd-6 at 5 μM, no orthosteric agonist
T2 construct: expressed in transfected cells; HEK293 GloSensor cells (cAMP assay)
T2 sequence (P18762 whole entry V133F): as the sequence (P18762 whole entry) above, with V133F counted along it

C57BL/6J naive mice [1] = experiment: In vivo bronchoprotection protocol, methacholine-induced airway constriction (flexiVent); design: Newtonian resistance (Rn): unit not given here; conditions: for Newtonian resistance (Rn): Cmpd-6 10 mg/kg i.v., 10 mg/kg
Procedure: (§1) For the bronchoprotection protocol (A), bronchospasm was induced by i.v. administration of methacholine (25, 50, 100, 200, and 400 μg/kg). […] General Linear Model repeated measures ANOVA with Tukey’s posthoc test was used to determine the differences of airway responsiveness between DMSO- and Cmpd-6–treated conditions.
(§2) Airway hyperresponsiveness (AHR) was measured using the forced oscillation technique as described previously ([42]). […] For the bronchoprotection protocol, bronchospasm was induced by jugular vein i.v. administration of increasing doses of methacholine (25, 50, 100, 200, 400 μg/kg). […] Mice were ventilated with 100% oxygen at 150 breaths per minute, constant volume of 8 mL/kg and a 3 cm H2O positive end–expiratory pressure using a computer-controlled small animal ventilator (flexiVent, SCIREQ). The total lung impedance signal collected contained information about the resistance and elastance properties of the lung from which Newtonian resistance (Rn), a good indicator of the luminal diameter of the conducting airways, was calculated using the constant phase model. The heart rate data acquired using EKG electrodes was monitored to assess mouse viability and analgesia throughout the bronchoconstrictor protocols.

C57BL/6J naive mice [2] = experiment: In vivo bronchodilation protocol, albuterol in methacholine-preconstricted airways (flexiVent); conditions: Cmpd-6 10 mg/kg i.v.; methacholine […] + albuterol 1-30 μg/kg
Procedure: as §1, §2

[3] = Solubility by formation of precipitates under the microscope; type: physicochemical
Procedure: *Solubility was determined by formation of precipitates observed under the microscope. **Cell […]
binds an intracellular region of the β2AR. ***Log P, Log of the Partition coefficient that was calculated using ChemDraw Professional (version 22.2, PerkinElmer). DMSO, dimethyl […]
(1 picture or pasted object on this page, not shown here)

WT murine β2AR = WT murine β2AR (Mus musculus, UniProt P18762); experiment: 125I-CYP radioligand competition binding, WT murine β2AR; conditions: WT Cmpd-6
WT murine β2AR, sequence (P18762 whole entry): as the sequence (P18762 whole entry) above
Procedure: (§3) Statistical analyses were performed using 1-way ANOVA, repeated (related) measures with Tukey’s posthoc test.

V133F mutant murine β2AR = V133F mutant murine β2AR (Mus musculus, UniProt P18762, V133F); experiment: 125I-CYP radioligand competition binding, V133F mutant murine β2AR; conditions: V133F Cmpd-6
V133F mutant murine β2AR, sequence (P18762 whole entry V133F): as the sequence (P18762 whole entry) above, with V133F counted along it
Procedure: as §3

COc1ccc(Sc2ccc(S(=O)(=O)N(C)C(C)C)cc2C(=O)N[C@H](CC(N)=O)Cc2ccc(C(C)(C)C)cc2)cc1 [Cmpd-6]
cAMP level (% of ISO-stimulated maximal response) (murine WT β2AR; Cmpd-6 at 5 μM, no orthosteric agonist, Murine WT): 25.8782% and 38.8997% and 33.0059% and 37.3496%
cAMP, constitutive activity of overexpressed β2AR (Figure 4C) (murine WT β2AR; Species of β2AR: Murine): 25.8782 and 38.8997 and 33.0059 and 37.3496
cAMP level (% of ISO-stimulated maximal response) (murine V133F mutant β2AR): 45.8463% and 58.5082% and 46.5958% and 56.3694%
Bronchoprotective effect against methacholine-induced airway resistance (C57BL/6J naive mice [1]; Cmpd-6 10 mg/kg i.v. 10 minutes before methacholine): no bronchoprotective effect
Newtonian resistance (Rn) (C57BL/6J naive mice [1]; Mch 0 μg/kg): 0.362 and 0.310 and 0.287 and 0.300 and 0.311
Newtonian resistance (Rn) (C57BL/6J naive mice [1]; Mch 25 μg/kg): 0.550 and 0.482 and 0.346 and 0.471 and 0.465
Newtonian resistance (Rn) (C57BL/6J naive mice [1]; Mch 50 μg/kg): 0.728 and 0.671 and 0.387 and 0.670 and 0.609
Newtonian resistance (Rn) (C57BL/6J naive mice [1]; Mch 100 μg/kg): 0.886 and 0.904 and 0.565 and 0.976 and 0.931
Newtonian resistance (Rn) (C57BL/6J naive mice [1]; Mch 200 μg/kg): 1.570 and 1.261 and 0.919 and 1.518 and 1.725
Newtonian resistance (Rn) (C57BL/6J naive mice [1]; Mch 400 μg/kg): 1.986 and 1.405 and 1.093 and 1.461 and 1.642
Effect on albuterol-mediated bronchodilation (C57BL/6J naive mice [2]): no enhancing effect
Solubility ([3]; Aqueous): 0.032 mM (≈ 0.0196 mg/mL)
Solubility ([3]; DMSO): 100 mM (≈ 61.2 mg/mL)
125I-CYP binding (% of maximal) (WT murine β2AR; log[ISO] -4 M): 0.36% and 0.2162% and 0.04816% and -0.00042%
125I-CYP binding (% of maximal) (WT murine β2AR; log[ISO] -4.49485 M): 1.8839% and 1.834% and 1.807% and 2.135%
125I-CYP binding (% of maximal) (WT murine β2AR; log[ISO] -5.09691 M): 4.237% and 3.492% and 3.782% and 5.55%
125I-CYP binding (% of maximal) (WT murine β2AR; log[ISO] -5.69897 M): 11.5444% and 11.0871% and 11.3959% and 13.7676%
125I-CYP binding (% of maximal) (WT murine β2AR; log[ISO] -6.30103 M): 26.4647% and 27.054% and 29.2061% and 34.2195%
125I-CYP binding (% of maximal) (WT murine β2AR; log[ISO] -6.90309 M): 53.3668% and 53.0846% and 55.6007% and 58.7138%
125I-CYP binding (% of maximal) (WT murine β2AR; log[ISO] -7.50515 M): 77.7987% and 78.0629% and 80.5466% and 83.0218%
125I-CYP binding (% of maximal) (WT murine β2AR; log[ISO] -8.10721 M): 94.1342% and 94.186% and 93.5984% and 92.8613%
125I-CYP binding (% of maximal) (WT murine β2AR; log[ISO] -8.70927 M): 97.914% and 99.3549% and 97.9296% and 99.6433%
125I-CYP binding (% of maximal) (WT murine β2AR; log[ISO] -9.31133 M): 100.454% and 99.5549% and 102.315% and 101.138%
125I-CYP binding (% of maximal) (WT murine β2AR; log[ISO] -9.91339 M): 102.683% and 102.302% and 101.203% and 102.316%
125I-CYP binding (% of maximal) (WT murine β2AR; no ISO competitor): 100.129% and 100.082% and 100.868% and 101.552%
125I-CYP binding (% of maximal) (V133F mutant murine β2AR; log[ISO] -4 M): 0.3208% and 0.5206% and 0.2622% and 0.2602%
125I-CYP binding (% of maximal) (V133F mutant murine β2AR; log[ISO] -4.49485 M): 0.9301% and 1.21% and 0.9752% and 0.9507%
125I-CYP binding (% of maximal) (V133F mutant murine β2AR; log[ISO] -5.09691 M): 1.3005% and 2.025% and 1.333% and 1.6451%
125I-CYP binding (% of maximal) (V133F mutant murine β2AR; log[ISO] -5.69897 M): 2.898% and 2.7378% and 2.508% and 2.41%
125I-CYP binding (% of maximal) (V133F mutant murine β2AR; log[ISO] -6.30103 M): 7.927% and 6.9353% and 6.15% and 6.231%
125I-CYP binding (% of maximal) (V133F mutant murine β2AR; log[ISO] -6.90309 M): 15.2419% and 14.4367% and 12.7613% and 13.8675%
125I-CYP binding (% of maximal) (V133F mutant murine β2AR; log[ISO] -7.50515 M): 33.0019% and 29.7875% and 27.3642% and 30.2603%
125I-CYP binding (% of maximal) (V133F mutant murine β2AR; log[ISO] -8.10721 M): 56.9542% and 53.726% and 49.4673% and 52.7312%
125I-CYP binding (% of maximal) (V133F mutant murine β2AR; log[ISO] -8.70927 M): 79.9915% and 78.4975% and 76.4167% and 78.5935%
125I-CYP binding (% of maximal) (V133F mutant murine β2AR; log[ISO] -9.31133 M): 94.8693% and 96.2982% and 94.9618% and 94.6481%
125I-CYP binding (% of maximal) (V133F mutant murine β2AR; log[ISO] -9.91339 M): 100.835% and 99.7406% and 98.19% and 100.221%
125I-CYP binding (% of maximal) (V133F mutant murine β2AR; no ISO competitor): 103.118% and 101.321% and 102.31% and 102.083%
